Source: patent US11053226B2, “KRAS G12C inhibitors and methods of using the same” (Amgen Inc., priority 2018, dated 2021)
pIC50: −log10 of the molar value. Read-outs that look alike come from different tables or passages of the source.

Target: GDP-bound KRAS protein (aa 1-169), containing both G12C and C118A amino acid substitutions (Homo sapiens (Human), UniProt P01116, C118A/G12C)
Assay: Coupled Nucleotide Exchange Assay
Format: biochemical
Method: For compounds in Table 9, the following assay conditions were employed:
Coupled Nucleotide Exchange Assay:
The assay plates were then read on a PerkinElmer EnVision Multilabel Reader, using AlphaScreen® technology, and data were analyzed using a 4-parameter logistic model to calculate IC50 values.

[1] = read-out: Coupled Exchange IC50 (2 h), 2 h compound pre-incubation
[2] = read-out: Coupled Exchange IC50 (20 h), 20 h compound pre-incubation
[3] = second Coupled Exchange column, read-out: Coupled Exchange IC50
[4] = third Coupled Exchange column, compound pre-incubation probably 20 hours (rest of head not shown; b435 lists 5 min, 2 hours or 20 hours), read-out: Coupled Exchange IC50
[5] = first Coupled Exchange column, compound pre-incubation probably 5 min (rest of head not shown; b435 lists 5 min, 2 hours or 20 hours), read-out: Coupled Exchange IC50

Chain of GDP-bound KRAS protein (aa 1-169), containing both G12C and C118A amino acid substitutions (P01116 other isoform, or with tags, fused parts or gaps G12C/C118A): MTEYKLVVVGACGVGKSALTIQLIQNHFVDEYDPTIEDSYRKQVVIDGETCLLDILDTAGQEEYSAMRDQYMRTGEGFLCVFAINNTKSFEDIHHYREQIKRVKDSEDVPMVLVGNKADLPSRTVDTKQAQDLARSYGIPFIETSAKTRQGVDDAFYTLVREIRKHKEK

C=CC(=O)N1CC(NC(=O)Cn2cc(-c3ccc4ccccc4c3)c3cc(-c4ccc5ccccc5c4)cc(C)c32)C1 [Example 263]
pIC50 [1]: < 3.60 | pIC50 [2]: 4.79

C=CC(=O)N1CC(NC(=O)Cn2cc(-c3ccc4ccccc4c3)c3cc(Br)cc(C)c32)C1 [Example 264]
pIC50 [1]: 5.02 | pIC50 [2]: 5.56

C=CC(=O)N1CC(NC(=O)Cn2cc(-c3cccc(-c4ccccc4)c3)c3cc(Br)cc(C)c32)C1 [Example 265]
pIC50 [1]: < 3.60 | pIC50 [2]: 5.49

C=CC(=O)N1CC(NC(=O)Cn2ccc3cc(SC)ccc32)C1 [Example 266]
pIC50 [1]: < 3.60 | pIC50 [2]: < 4.20

C=CC(=O)N1CC(NC(=O)Cn2ccc3cc(Br)cc(F)c32)C1 [Example 267]
pIC50 [1]: 4.81 | pIC50 [2]: 5.65

C=CC(=O)N1CC(NC(=O)Cn2cc(-c3cccc(C(C)C)c3)c3cc(Br)cc(C)c32)C1 [Example 268]
pIC50 [1]: 5.17 | pIC50 [2]: 5.79

C=CC(=O)N1CC(NC(=O)Cn2ccc3cc(CC)ccc32)C1 [Example 277]
pIC50 [3]: < 3.60 | pIC50 [4]: < 3.60

C=CC(=O)N1CC(NC(=O)Cn2c(C)c(C(=O)OC(C)(C)C)c3cc([N+](=O)[O-])ccc32)C1 [Example 278]
pIC50 [3]: 3.98 | pIC50 [4]: < 3.60

C=CC(=O)N1CC(NC(=O)Cn2c3ccccc3c3ccc(Cl)nc32)C1 [Example 280]
pIC50 [3]: < 3.60 | pIC50 [4]: < 4.20

C=CC(=O)N1CC(NC(=O)Cn2c(C)c(-c3nccnc3Cl)c3cc(Cl)ccc32)C1 [Example 281]
pIC50 [3]: 4.87 | pIC50 [4]: 5.63

C=CC(=O)N1CC(NC(=O)Cn2c(C#N)c(I)c3cc(Br)ccc32)C1 [Example 304]
pIC50 [3]: 5.14 | pIC50 [4]: 5.91

C=CC(=O)N1CC(NC(=O)Cn2c(C)c(-c3cccnc3Br)c3cc(Cl)ccc32)C1 [Example 305]
pIC50 [3]: 5.53 | pIC50 [4]: 6.09

C=CC(=O)N1CC(NC(=O)Cn2c(C)c(-c3ncccc3Cl)c3cc(Cl)ccc32)C1 [Example 306]
pIC50 [3]: 5.02 | pIC50 [4]: 5.79

C=C(CCO)C(=O)N1CC(NC(=O)Cn2c(C)c(C(=O)N3CCc4c(cccc4OC)C3)c3cc(Br)ccc32)C1 [Example 313]
pIC50 [3]: < 3.60

C=CC(=O)N1CC(NC(=O)Cn2c(C)c(-c3cnccc3C#N)c3cc(Cl)ccc32)C1 [Example 314]
pIC50 [3]: 4.93

C=CC(=O)N1CC(NC(=O)Cn2c(C)c(CN3CCN(c4ccc(C#N)cn4)CC3)c3cc(Br)ccc32)C1 [Example 315]
pIC50 [3]: 5.21

C=CC(=O)N1CC(NC(=O)Cn2ccc3c(Cl)c(Cl)ccc32)C1 [Example 317]
pIC50 [3]: 4.81

C=CC(=O)N1CC(NC(=O)Cn2c(C)c(-c3ccccc3C(C)(C)C)c3cc(Cl)ccc32)C1 [Example 318]
pIC50 [5]: 4.79 | pIC50 [3]: 4.00

C=CC(=O)N1CC(NC(=O)Cn2cc(CC(=O)N3CCCC4(CCCN(C)C4)C3)c3cc(Br)ccc32)C1 (centres unmarked) [Example 322]
pIC50 [3]: 5.68

C=CC(=O)N1CC(NC(=O)Cn2c(C3CC3)c(-c3cnccc3C(C)C)c3cc(Cl)cc(C)c32)C1 [Example 324]
pIC50 [5]: 5.62

C=CC(=O)N1CC(NC(=O)Cn2c(C)c(-c3cnccc3C(C)C)c3cc(Cl)cc(C)c32)C1 [Example 325]
pIC50 [5]: 5.81

C=CC(=O)N1CC(NC(=O)Cn2cc(CC(=O)N3CCCCC3CN3CCCCC3)c3cc(Br)ccc32)C1 (centres unmarked) [Example 326]
pIC50 [5]: 4.58

C=CC(=O)N1CC(NC(=O)Cn2cc(CC(=O)N3CCC(c4ncc[nH]4)CC3)c3cc(Br)ccc32)C1 [Example 327]
pIC50 [5]: 4.34

C=CC(=O)N1CC(NC(=O)Cn2cc(CC(=O)N3CCC4(CCOCC4)C3)c3cc(Br)ccc32)C1 [Example 328]
pIC50 [5]: 4.51

C=CC(=O)N1CC(NC(=O)Cn2cc(CC(=O)N3CCOC4CC(N(C)C)CCC43)c3cc(Br)ccc32)C1 (centres unmarked) [Example 329]
pIC50 [5]: 4.07

C=CC(=O)N1CC(NC(=O)Cn2cc(CC(=O)N3CCc4ccc(C(=O)O)cc4C3)c3cc(Br)ccc32)C1 [Example 330]
pIC50 [5]: 4.44

C=CC(=O)N1CC(NC(=O)Cn2cc(CC(=O)NCC3Cc4ccccc4CN3C)c3cc(Br)ccc32)C1 (centres unmarked) [Example 331]
pIC50 [5]: 4.65
